Read-outs that look alike come from different tables or passages of the source.
Key:
HepG2 = assay: Antiproliferative activity, SRB assay; format: cell-based, human; details: Homo sapiens, HepG2
Experimental: (§1) The synthesized compounds were first evaluated for their cytotoxic effect on MCF-7 (human breast adenocarcinoma), U937 (histiocytic lymphoma cancer), HepG2 (human liver cancer) cells, and MGC-803 (human gastric cancer) using the SRB and CCK-8 assay. As reference compounds CA-4 and colchicine were included.
(§2) The primary tumor cells were purchased from a professional biomedical company. First, the primary tumor cells were incubated in a cell culture incubator at 37°C and 5% CO2. After the cell fusion reached 85%–95%, subculture was performed, and the tumor cells obtained at this time were used for subsequent related experiments. The CCK-8 method was used to inhibit the proliferation of U937 tumor cells, and the SRB method was used to inhibit the proliferation of MCF7 and HepG2 tumor cells.
Cells were distributed into 96-well plates with a density of 3 × 10^3–4 × 10^3 cells per well and incubated for 24 h in a 5% CO2 incubator at 37°C, followed by treatment with study compounds at different concentrations at 37°C for 72 h. One hundred microliters of 10% (w/v) trichloroacetic acid was added to each well, fixed at 4°C for 30 min, and dried at 65°C. Then 100 μl of 0.4% SRB was added to each well and stained on a shaker for 20 min at room temperature. The excess dye solution was washed with newly prepared 1% glacial acetic acid and dried at 65°C. One hundred fifty microliters of 10 mM unbuffered Trisbase was added to each well of the plate and shaken for 5 min to dissolve the dye. The microplate reader measured the optical density (OD) at a wavelength of 560 nm.

U937 = assay: Antiproliferative activity, CCK-8 assay; format: cell-based; details: Homo sapiens, U-937
Experimental: as §1, §2
The cells in the logarithmic growth phase were seeded in a 96-well plate at 8,000/well, and the drug-containing medium and cell suspension were added to the well. Three wells were added with the blank medium as the blank group. The 96-well plate was incubated for 72 h in a 37°C, 5% CO2 incubator. The 10 μl of CCK-8 dye solution was added to each well, and the incubation continued for 3–4 h.

MCF-7 = assay: Antiproliferative activity, SRB assay; format: cell-based, human; details: Homo sapiens;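 note: proliferation of MCF7 cells quantified by sulforhodamine B staining, with optical density read at 560 nm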
[1] = 72 h, triplicate, mean ± SD, read-out: IC50 ± SD, HepG2
[2] = 72 h, triplicate, mean ± SD, read-out: IC50 ± SD, U937
[3] = MCF7, 72 h, 72 h, triplicate, mean ± SD, read-out: IC50 ± SD, MCF-7
[4] = MCF7, supplement raw data of table 2, read-out: IC50(MCF-7)
[5] = supplement raw data of table 2, read-out: IC50(Hepg2)
[6] = supplement raw data of table 2, read-out: IC50(U937)

| Compound | IC50 (HepG2; [1]) | melting point | IC50 (U937; [2]) | IC50 (MCF-7; [3]) | IC50 (MCF-7; [4]) | IC50 (HepG2; [5]) | IC50 (U937; [6]) |
| --- | --- | --- | --- | --- | --- | --- | --- |
| COc1cc(C(=O)/C(C)=C/c2c(C)[nH]c3ccccc23)cc(OC)c1OC [Compound 7b, (E)-2-methyl-3-(2-methyl-1H-indol-3-yl)-1-(3,4,5-trimethoxyphenyl)prop-2-en-1-one] | 10.8 ± 0.629 µM | 152.7 to 153.2 °C | 3.08 ± 0.433 µM | 0.584 ± 0.016 µM | 0.584 µM | – | – |
| COC(=O)c1ccc2[nH]cc(/C=C(\C)C(=O)c3cc(OC)c(OC)c(OC)c3)c2c1 [Compound 7e, methyl(E)-3-(2-methyl-3-oxo-3-(3,4,5-trimethoxyphenyl)prop-1-en-1-yl)-1H-indole-5-carboxylate] | > 20 µM | 210.4 to 213.7 °C | > 20 µM | > 20 µM | – | – | – |
| COC(=O)c1ccc2c(/C=C(\C)C(=O)c3cc(OC)c(OC)c(OC)c3)c[nH]c2c1 [Compound 7f, methyl(E)-3-(2-methyl-3-oxo-3-(3,4,5-trimethoxyphenyl)prop-1-en-1-yl)-1H-indole-6-carboxylate] | 0.193 ± 0.001 µM | 229.3 to 231.7 °C | 1.61 ± 0.19 µM | 13.7 ± 0.965 µM | – | – | – |
| COc1cc(C(=O)/C(C)=C/c2cc3ccccc3o2)cc(OC)c1OC [Compound 7h, (E)-3-(benzofuran-2-yl)-2-methyl-1-(3,4,5-trimethoxyphenyl)prop-2-en-1-one] | 0.116 ± 0.007 µM | 50.1 to 53.2 °C | 0.224 ± 0.007 µM | 0.254 ± 0.01 µM | 0.255 µM | – | – |
| COc1cc(C(=O)/C(C)=C/c2oc3ccccc3c2C)cc(OC)c1OC [Compound 7i, (E)-2-methyl-3-(3-methylbenzofuran-2-yl)-1-(3,4,5-trimethoxyphenyl)prop-2-en-1-one] | 0.879 ± 0.007 µM | 113.2 to 115.1 °C | 1.18 ± 0.037 µM | 1.41 ± 0.021 µM | – | 0.879 µM | – |
| COc1cc(C(=O)/C(C)=C/c2ccc3c(c2)CCO3)cc(OC)c1OC [Compound 7n, (E)-3-(2,3-dihydrobenzofuran-5-yl)-2-methyl-1-(3,4,5-trimethoxyphenyl)prop-2-en-1-one] | 0.002 ± 0.0001 µM | – | 0.011 ± 0.002 µM | 0.02 ± 0.002 µM | 0.0195 µM | 0.00221 µM | 0.0108 µM |
| COc1cc(C(=O)/C(C)=C/c2cc3ccccc3s2)cc(OC)c1OC [Compound 7o, (E)-3-(benzo[b]thiophen-2-yl)-2-methyl-1-(3,4,5-trimethoxyphenyl)prop-2-en-1-one] | 0.116 ± 0.001 µM | 81.4 to 83.2 °C | 0.166 ± 0.003 µM | 0.187 ± 0.003 µM | 0.187 µM | 0.116 µM | 0.166 µM |
| COc1cc(C(=O)/C(C)=C/c2cccc3c2OCO3)cc(OC)c1OC [Compound 7s, (E)-3-(benzo[d][1,3]dioxol-4-yl)-2-methyl-1-(3,4,5-trimethoxyphenyl)prop-2-en-1-one] | 0.259 ± 0.005 µM | 119.7 to 120.9 °C | 0.353 ± 0.006 µM | 0.225 ± 0.005 µM | – | 0.259 µM | 0.353 µM |
| COc1cc(C(=O)/C(C#N)=C/c2c[nH]c3ccccc23)cc(OC)c1OC [Compound 8a, (E)-3-(1H-indol-3-yl)-2-(3,4,5-trimethoxybenzoyl)acrylonitrile] | 0.938 ± 0.008 µM | 224.2 to 229.3 °C | 0.14 ± 0.041 µM | 0.934 ± 0.023 µM | 0.94 µM | 0.938 µM | 0.14 µM |
| COc1cc(C(=O)/C(C#N)=C/c2c(C)[nH]c3ccccc23)cc(OC)c1OC [Compound 8b, (E)-3-(2-methyl-1H-indol-3-yl)-2-(3,4,5-trimethoxybenzoyl)acrylonitrile] | > 20 µM | 216.5 to 218.2 °C | > 20 µM | > 20 µM | – | – | – |
| COc1cc(C(=O)/C(C#N)=C/c2c(-c3ccccc3)[nH]c3ccccc23)cc(OC)c1OC [Compound 8c, (E)-2-((l2-azaneylidene)-l3-methyl)-3-(2-phenyl-1H-indol-3-yl)-1-(3,4,5-trimethoxyphenyl)prop-2-en-1-one] | 14.1 ± 0.386 µM | 253.8 to 255.9 °C | 4.49 ± 0.433 µM | 2.1 ± 0.27 µM | – | – | – |
| COC(=O)c1cccc2[nH]cc(/C=C(\C#N)C(=O)c3cc(OC)c(OC)c(OC)c3)c12 [Compound 8d, methyl(E)-3-(2-cyano-3-oxo-3-(3,4,5-trimethoxyphenyl)prop-1-en-1-yl)-1H-indole-4-carboxylate] | > 20 µM | 176.7 to 178.2 °C | 8.58 ± 0.178 µM | > 20 µM | – | – | – |
| COC(=O)c1ccc2[nH]cc(/C=C(\C#N)C(=O)c3cc(OC)c(OC)c(OC)c3)c2c1 [Compound 8e, methyl(E)-3-(2-cyano-3-oxo-3-(3,4,5-trimethoxyphenyl)prop-1-en-1-yl)-1H-indole-5-carboxylate] | > 20 µM | > 260 °C | > 20 µM | > 20 µM | – | – | – |
| COC(=O)c1ccc2c(/C=C(\C#N)C(=O)c3cc(OC)c(OC)c(OC)c3)c[nH]c2c1 [Compound 8f, methyl(E)-3-(2-cyano-3-oxo-3-(3,4,5-trimethoxyphenyl)prop-1-en-1-yl)-1H-indole-6-carboxylate] | > 20 µM | 239.7 to 241 °C | > 20 µM | > 20 µM | – | – | – |
| COc1cc(C(=O)/C(C#N)=C/c2c[nH]c3cc(Br)ccc23)cc(OC)c1OC [Compound 8g, (E)-3-(6-bromo-1H-indol-3-yl)-2-(3,4,5-trimethoxybenzoyl)acrylonitrile] | 1.43 ± 0.049 µM | 266.5 to 268.2 °C | 2.51 ± 0.029 µM | 2.161 ± 0.009 µM | – | – | – |
| COc1cc(C(=O)/C(C#N)=C/c2cc3ccccc3o2)cc(OC)c1OC [Compound 8h, (E)-3-(benzofuran-2-yl)-2-(3,4,5-trimethoxybenzoyl)acrylonitrile] | > 20 µM | 168.3 to 169.5 °C | > 20 µM | > 20 µM | – | – | – |
| COc1cc(C(=O)/C(C#N)=C/c2oc3ccccc3c2C)cc(OC)c1OC [Compound 8i, (E)-3-(3-methylbenzofuran-2-yl)-2-(3,4,5-trimethoxybenzoyl)acrylonitrile] | > 20 µM | 136.7 to 138.5 °C | > 20 µM | > 20 µM | – | – | – |
| COc1cc(C(=O)/C(C#N)=C/c2coc3ccccc23)cc(OC)c1OC [Compound 8j, (E)-3-(benzofuran-3-yl)-2-(3,4,5-trimethoxybenzoyl)acrylonitrile] | > 20 µM | 176.5 to 178.4 °C | > 20 µM | > 20 µM | – | – | – |
| COc1cc(C(=O)/C(C#N)=C/c2cc3c(cc2[N+](=O)[O-])OCO3)cc(OC)c1OC [Compound 8k, (E)-3-[6-nitrobenzo(d)(1,3)dioxol-5-yl]-2-(3,4,5-trimethoxybenzoyl)acrylonitrile] | 18.74 ± 0.035 µM | 160.1 to 163.8 °C | 14.31 ± 0.127 µM | 16.43 ± 0.042 µM | – | 18.7 µM | 14.3 µM |
| COc1cc(C(=O)/C(C#N)=C/c2ccc3oc4ccccc4c3c2)cc(OC)c1OC [Compound 8l, (E)-3-[dibenzo (b,d)furan-2-yl]-2-(3,4,5-trimethoxybenzoyl)acrylonitrile] | > 20 µM | 181.3 to 182.6 °C | > 20 µM | > 20 µM | – | – | – |
| COc1cc(C(=O)/C(C#N)=C/c2ccc3occc3c2)cc(OC)c1OC [Compound 8m, (E)-3-(benzofuran-5-yl)-2-(3,4,5-trimethoxybenzoyl)acrylonitrile] | > 20 µM | 169.7 to 172.1 °C | > 20 µM | > 20 µM | – | – | – |
| COc1cc(C(=O)/C(C#N)=C/c2ccc3c(c2)CCO3)cc(OC)c1OC [Compound 8n, (E)-3-(2,3-dihydrobenzofuran-5-yl)-2-(3,4,5-trimethoxybenzoyl)acrylonitrile] | > 20 µM | – | 9.25 ± 0.141 µM | > 20 µM | – | – | – |
| COc1cc(C(=O)/C(C#N)=C/c2cc3ccccc3s2)cc(OC)c1OC [Compound 8o, (E)-3-[benzo(b)thiophen-2-yl]-2-(3,4,5-trimethoxybenzoyl)acrylonitrile] | 1.701 ± 0.013 µM | 187.5 to 189.3 °C | > 20 µM | 14.74 ± 0.141 µM | – | – | – |
| COc1cc(C(=O)/C(C#N)=C/c2csc3ccccc23)cc(OC)c1OC [Compound 8p, (E)-3-[benzo(b)thiophen-3-yl]-2-(3,4,5-trimethoxybenzoyl)acrylonitrile] | > 20 µM | 201.8 to 203.1 °C | > 20 µM | > 20 µM | – | – | – |

— publication PMC8652888, “Angiogenesis, Anti-Tumor, and Anti-Metastatic Activity of Novel α-Substituted Hetero-Aromatic Chalcone Hybrids as Inhibitors of Microtubule Polymerization” (Frontiers in Chemistry, 2021)
